Experimental data from ChEMBL document CHEMBL5154675, “Design, Synthesis, and Biological Evaluation of 1-(Indolizin-3-yl)ethan-1-ones as CBP Bromodomain Inhibitors for the Treatment of Prostate Cancer” (J Med Chem, 2022).
pIC50, pKd: −log10 of the molar value. Values after ≈ are worked out from the molar mass of the structure shown. Active and inactive are the calls of the source. No cut-off for these calls is given here.

Legend:
[1] = biological target: T1, CREB-binding protein (Homo sapiens, UniProt Q92793); experiment: Inhibition of His6-tagged human CBP bromodomain (1081 to 1197 residues) expressed in Escherichia coli BL21 (DE3) incubated for 30 mins by HTRF assay
[2] = biological target: T1, CREB-binding protein; experiment: Binding affinity to His6-tagged human CBP bromodomain (1081 to 1197 residues) expressed in Escherichia coli BL21 (DE3) assessed as dissociation constant by ITC analysis
[3] = AUC (0 to infinity) in Sprague-Dawley rat at 5 mg/kg, iv administered as single dose measured up to 24 hrs; assay type: ADME, organism-based; set-up: time < 24 hrs, dose 5 mg/kg, route iv; conditions: in vivo, 24 h
[4] = Cmax in Sprague-Dawley rat at 25 mg/kg, po measured up to 24 hrs; assay type: ADME, organism-based; set-up: dose 25 mg/kg, time < 24 hrs, route po; conditions: in vivo
[5] = Cmax in Sprague-Dawley rat at 5 mg/kg, iv administered as single dose measured up to 24 hrs; assay type: ADME, organism-based; set-up: time < 24 hrs, dose 5 mg/kg, route iv; conditions: in vivo
[6] = Clearance in Sprague-Dawley rat at 5 mg/kg, iv administered as single dose measured up to 24 hrs; assay type: ADME, organism-based; conditions: in vivo, iv, 5 mg/kg, 24 h
[7] = Half life in Sprague-Dawley rat at 25 mg/kg, po measured up to 24 hrs; assay type: ADME, organism-based; conditions: in vivo
[8] = Half life in Sprague-Dawley rat at 5 mg/kg, iv administered as single dose measured up to 24 hrs; assay type: ADME, organism-based; conditions: Sprague-Dawley, in vivo
[9] = Metabolic stability in human liver microsomes assessed as parent compound remaining at 1 uM incubated for 45 mins in presence of NADPH by LC-MS/MS analysis; assay type: ADME, Microsome; conditions: read-out: Stability
[10] = Half life in human liver microsomes at 1 uM incubated for 45 mins in presence of NADPH by LC-MS/MS analysis; assay type: ADME, Microsome
[11] = Hepatic extraction ratio in human liver microsomes at 1 uM incubated for 45 mins in presence of NADPH by LC-MS/MS analysis; assay type: ADME, Microsome; conditions: read-out: ERH
[12] = Apparent permeability across apical to basolateral side in human Caco-2 cells at 10 uM measured after 2 hrs by LC-MS/MS analysis; assay type: ADME, cell-based
[13] = Efflux ratio of apparent permeability across basolateral to apical side over apical to basolateral side in human Caco-2 cells at 10 uM measured after 2 hrs by LC-MS/MS analysis; assay type: ADME, cell-based
[14] = Apparent permeability across apical to basolateral side in human Caco-2 cells assessed as drug recovery at 10 uM measured after 2 hrs by LC-MS/MS analysis; assay type: ADME, cell-based; conditions: read-out: Drug recovery
[15] = Apparent permeability across basolateral to apical side in human Caco-2 cells assessed as drug recovery at 10 uM measured after 2 hrs by LC-MS/MS analysis; assay type: ADME, cell-based; conditions: read-out: Drug recovery
[16] = test system: LNCaP; experiment: Antiproliferative activity against human LNCaP cells assessed as cell growth inhibition by Celltiter-Glo assay; assay type: functional, cell-based
[17] = test system: LNCaP C4-2B; experiment: Inhibition of colony formation in human LNCaP C4-2B cells at 1 to 4 uM incubated for 14 days by crystal violet staining based assay; assay type: functional, cell-based; conditions: dose 1-4 µM, time 14.0 day
[18] = test system: CWR22R; experiment: Inhibition of colony formation in human 22Rv1 cells at 1 to 4 uM incubated for 14 days by crystal violet staining based assay; assay type: functional, cell-based; conditions: dose 1-4 µM, time 14.0 day
[19] = test system: CWR22R; experiment: Antitumor activity against human 22Rv1 cells xenografted in NOD SCID mouse assessed as tumor growth inhibition at 40 mg/kg, ip administered once daily for 21 days and measured every other day relative to control; assay type: functional; conditions: 22Rv1, 504 h, time 21 day, read-out: TGI
[20] = Aqueous solubility of compound in PBS buffer at pH 7.2 measured after 24 hrs by HPLC analysis; assay type: physicochemical
[21] = test system: LNCaP C4-2B; experiment: Induction of apoptosis in human LNCaP C4-2B cells assessed as increase in apoptotic cells at 20 uM measured after 48 hrs by Annexin V-FITC and propidium iodide staining based flow cytometry (Rvb= 1%); assay type: functional
[22] = test system: CWR22R; experiment: Suppression of c-Myc protein expression in human 22Rv1 cells at 5 uM incubated for 48 hrs by Western blot analysis; assay type: functional, cell-based
[23] = test system: LNCaP C4-2B; experiment: Suppression of Androgen receptor target-gene expression in human LNCaP C4-2B cells at 5 uM incubated for 48 hrs by SYBR green dye-based qRT-PCR analysis; assay type: functional, cell-based
[24] = test system: CWR22R; experiment: Suppression of Androgen receptor target-gene expression in human 22Rv1 cells at 5 uM incubated for 48 hrs by SYBR green dye-based qRT-PCR analysis; assay type: functional, cell-based
[25] = test system: LNCaP C4-2B; experiment: Suppression of c-Myc protein expression in human LNCaP C4-2B cells at 5 uM incubated for 48 hrs by Western blot analysis; assay type: functional, cell-based
[26] = biological target: Histone acetyltransferase p300 (Homo sapiens) (UniProt Q09472); conditions: dose 200.0 µM, time 30.0 min
[27] = biological target: Bromodomain adjacent to zinc finger domain protein 2B (Homo sapiens) (UniProt Q9UIF8); conditions: dose 200.0 µM, time 30.0 min
[28] = biological target: Bromodomain-containing protein 4 (Homo sapiens, UniProt O60885); conditions: dose 200.0 µM, time 30.0 min
[29] = biological target: Bromodomain-containing protein 3 (Homo sapiens, UniProt Q15059); conditions: dose 200.0 µM, time 30.0 min
[30] = biological target: Bromodomain-containing protein 2 (Homo sapiens, UniProt P25440); conditions: dose 200.0 µM, time 30.0 min
[31] = biological target: T2, Bromodomain testis-specific protein (Homo sapiens, UniProt Q58F21); conditions: dose 200.0 µM, time 30.0 min
[32] = biological target: T2, Bromodomain testis-specific protein; conditions: dose 200.0 µM, time 30.0 min; remark: listed apart in the source
[33] = biological target: T3, Bromodomain-containing protein 9 (Homo sapiens) (UniProt Q9H8M2); conditions: dose 200.0 µM, time 30.0 min
T3 sequence (whole entry): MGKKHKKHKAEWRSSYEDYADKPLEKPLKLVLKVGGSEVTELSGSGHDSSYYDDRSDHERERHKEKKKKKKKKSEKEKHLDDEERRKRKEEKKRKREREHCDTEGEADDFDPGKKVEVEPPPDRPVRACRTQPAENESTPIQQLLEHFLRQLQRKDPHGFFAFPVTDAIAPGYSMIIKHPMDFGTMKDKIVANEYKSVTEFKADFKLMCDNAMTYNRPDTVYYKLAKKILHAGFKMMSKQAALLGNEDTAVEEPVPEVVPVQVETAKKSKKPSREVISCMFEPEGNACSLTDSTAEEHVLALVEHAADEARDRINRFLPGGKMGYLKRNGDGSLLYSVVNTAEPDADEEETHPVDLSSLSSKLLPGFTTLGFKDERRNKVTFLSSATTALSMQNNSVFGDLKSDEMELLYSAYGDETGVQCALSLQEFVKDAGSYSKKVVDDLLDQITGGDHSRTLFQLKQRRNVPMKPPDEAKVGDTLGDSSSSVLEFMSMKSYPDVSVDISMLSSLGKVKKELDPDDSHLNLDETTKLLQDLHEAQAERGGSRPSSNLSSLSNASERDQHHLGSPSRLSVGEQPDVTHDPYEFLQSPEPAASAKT

T1 sequence (Q92793 whole entry, the tested form may be a part): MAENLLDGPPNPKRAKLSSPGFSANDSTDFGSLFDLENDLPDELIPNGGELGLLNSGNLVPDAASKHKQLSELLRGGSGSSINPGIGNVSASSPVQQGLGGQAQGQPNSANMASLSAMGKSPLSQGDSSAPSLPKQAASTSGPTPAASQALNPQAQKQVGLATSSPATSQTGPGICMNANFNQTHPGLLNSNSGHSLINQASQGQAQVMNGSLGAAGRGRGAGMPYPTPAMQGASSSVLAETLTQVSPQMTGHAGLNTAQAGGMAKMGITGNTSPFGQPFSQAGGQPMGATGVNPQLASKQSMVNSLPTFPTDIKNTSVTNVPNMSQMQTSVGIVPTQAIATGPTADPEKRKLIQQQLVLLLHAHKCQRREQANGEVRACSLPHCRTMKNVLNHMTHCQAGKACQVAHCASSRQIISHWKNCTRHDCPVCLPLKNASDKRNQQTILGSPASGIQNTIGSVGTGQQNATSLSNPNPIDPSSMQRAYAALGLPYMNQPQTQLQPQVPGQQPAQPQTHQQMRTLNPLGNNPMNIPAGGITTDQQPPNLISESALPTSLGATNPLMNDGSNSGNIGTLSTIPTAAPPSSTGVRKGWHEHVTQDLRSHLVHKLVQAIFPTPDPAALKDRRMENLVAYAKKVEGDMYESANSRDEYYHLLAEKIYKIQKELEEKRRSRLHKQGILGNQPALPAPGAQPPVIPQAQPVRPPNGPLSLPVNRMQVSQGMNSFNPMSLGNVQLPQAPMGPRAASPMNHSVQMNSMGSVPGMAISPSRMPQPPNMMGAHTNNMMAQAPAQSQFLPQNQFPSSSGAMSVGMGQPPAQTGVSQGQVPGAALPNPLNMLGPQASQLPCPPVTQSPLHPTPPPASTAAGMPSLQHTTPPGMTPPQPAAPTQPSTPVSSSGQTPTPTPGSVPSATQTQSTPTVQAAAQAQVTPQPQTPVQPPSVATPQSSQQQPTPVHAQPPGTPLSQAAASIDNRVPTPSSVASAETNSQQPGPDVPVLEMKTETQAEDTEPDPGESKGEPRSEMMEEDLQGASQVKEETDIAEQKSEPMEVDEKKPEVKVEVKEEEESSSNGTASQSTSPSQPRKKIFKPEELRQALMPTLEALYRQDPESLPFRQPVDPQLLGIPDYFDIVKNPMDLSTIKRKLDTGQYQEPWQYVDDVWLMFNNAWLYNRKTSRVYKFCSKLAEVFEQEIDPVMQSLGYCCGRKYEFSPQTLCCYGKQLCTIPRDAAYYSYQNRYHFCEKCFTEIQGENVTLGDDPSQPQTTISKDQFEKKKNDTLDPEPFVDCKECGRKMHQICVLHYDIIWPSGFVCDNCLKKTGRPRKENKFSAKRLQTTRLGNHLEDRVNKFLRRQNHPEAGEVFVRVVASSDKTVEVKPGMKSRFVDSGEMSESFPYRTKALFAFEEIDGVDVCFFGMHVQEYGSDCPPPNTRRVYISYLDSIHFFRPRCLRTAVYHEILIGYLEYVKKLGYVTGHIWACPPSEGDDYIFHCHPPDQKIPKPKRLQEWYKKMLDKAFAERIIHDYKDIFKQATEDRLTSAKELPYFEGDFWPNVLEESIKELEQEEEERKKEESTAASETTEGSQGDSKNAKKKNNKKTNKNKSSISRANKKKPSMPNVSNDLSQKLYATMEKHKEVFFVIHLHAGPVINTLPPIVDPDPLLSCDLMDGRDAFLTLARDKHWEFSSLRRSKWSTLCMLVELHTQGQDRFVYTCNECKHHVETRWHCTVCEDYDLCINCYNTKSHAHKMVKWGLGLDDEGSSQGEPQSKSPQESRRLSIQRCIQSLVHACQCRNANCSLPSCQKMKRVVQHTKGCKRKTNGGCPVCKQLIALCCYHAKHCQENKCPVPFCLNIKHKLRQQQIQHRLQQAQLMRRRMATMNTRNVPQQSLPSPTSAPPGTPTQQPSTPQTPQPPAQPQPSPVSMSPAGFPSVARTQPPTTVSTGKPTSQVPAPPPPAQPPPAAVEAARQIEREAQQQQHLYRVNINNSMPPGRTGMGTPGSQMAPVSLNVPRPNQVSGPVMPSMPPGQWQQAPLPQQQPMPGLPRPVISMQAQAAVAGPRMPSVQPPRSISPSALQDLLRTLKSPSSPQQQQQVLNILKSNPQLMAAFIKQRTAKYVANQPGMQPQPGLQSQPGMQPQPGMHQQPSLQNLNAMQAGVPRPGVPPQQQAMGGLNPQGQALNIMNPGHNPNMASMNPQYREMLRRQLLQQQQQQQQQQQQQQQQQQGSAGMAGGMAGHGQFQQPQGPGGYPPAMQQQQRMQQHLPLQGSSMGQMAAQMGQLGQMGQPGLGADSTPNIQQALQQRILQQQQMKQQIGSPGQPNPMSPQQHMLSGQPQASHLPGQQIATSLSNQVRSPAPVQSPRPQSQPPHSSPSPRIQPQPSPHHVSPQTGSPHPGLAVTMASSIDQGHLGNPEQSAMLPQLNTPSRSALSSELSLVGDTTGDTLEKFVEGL
Chain of Bromodomain adjacent to zinc finger domain protein 2B (Homo sapiens) (Q9UIF8 whole entry, the tested form may be a part): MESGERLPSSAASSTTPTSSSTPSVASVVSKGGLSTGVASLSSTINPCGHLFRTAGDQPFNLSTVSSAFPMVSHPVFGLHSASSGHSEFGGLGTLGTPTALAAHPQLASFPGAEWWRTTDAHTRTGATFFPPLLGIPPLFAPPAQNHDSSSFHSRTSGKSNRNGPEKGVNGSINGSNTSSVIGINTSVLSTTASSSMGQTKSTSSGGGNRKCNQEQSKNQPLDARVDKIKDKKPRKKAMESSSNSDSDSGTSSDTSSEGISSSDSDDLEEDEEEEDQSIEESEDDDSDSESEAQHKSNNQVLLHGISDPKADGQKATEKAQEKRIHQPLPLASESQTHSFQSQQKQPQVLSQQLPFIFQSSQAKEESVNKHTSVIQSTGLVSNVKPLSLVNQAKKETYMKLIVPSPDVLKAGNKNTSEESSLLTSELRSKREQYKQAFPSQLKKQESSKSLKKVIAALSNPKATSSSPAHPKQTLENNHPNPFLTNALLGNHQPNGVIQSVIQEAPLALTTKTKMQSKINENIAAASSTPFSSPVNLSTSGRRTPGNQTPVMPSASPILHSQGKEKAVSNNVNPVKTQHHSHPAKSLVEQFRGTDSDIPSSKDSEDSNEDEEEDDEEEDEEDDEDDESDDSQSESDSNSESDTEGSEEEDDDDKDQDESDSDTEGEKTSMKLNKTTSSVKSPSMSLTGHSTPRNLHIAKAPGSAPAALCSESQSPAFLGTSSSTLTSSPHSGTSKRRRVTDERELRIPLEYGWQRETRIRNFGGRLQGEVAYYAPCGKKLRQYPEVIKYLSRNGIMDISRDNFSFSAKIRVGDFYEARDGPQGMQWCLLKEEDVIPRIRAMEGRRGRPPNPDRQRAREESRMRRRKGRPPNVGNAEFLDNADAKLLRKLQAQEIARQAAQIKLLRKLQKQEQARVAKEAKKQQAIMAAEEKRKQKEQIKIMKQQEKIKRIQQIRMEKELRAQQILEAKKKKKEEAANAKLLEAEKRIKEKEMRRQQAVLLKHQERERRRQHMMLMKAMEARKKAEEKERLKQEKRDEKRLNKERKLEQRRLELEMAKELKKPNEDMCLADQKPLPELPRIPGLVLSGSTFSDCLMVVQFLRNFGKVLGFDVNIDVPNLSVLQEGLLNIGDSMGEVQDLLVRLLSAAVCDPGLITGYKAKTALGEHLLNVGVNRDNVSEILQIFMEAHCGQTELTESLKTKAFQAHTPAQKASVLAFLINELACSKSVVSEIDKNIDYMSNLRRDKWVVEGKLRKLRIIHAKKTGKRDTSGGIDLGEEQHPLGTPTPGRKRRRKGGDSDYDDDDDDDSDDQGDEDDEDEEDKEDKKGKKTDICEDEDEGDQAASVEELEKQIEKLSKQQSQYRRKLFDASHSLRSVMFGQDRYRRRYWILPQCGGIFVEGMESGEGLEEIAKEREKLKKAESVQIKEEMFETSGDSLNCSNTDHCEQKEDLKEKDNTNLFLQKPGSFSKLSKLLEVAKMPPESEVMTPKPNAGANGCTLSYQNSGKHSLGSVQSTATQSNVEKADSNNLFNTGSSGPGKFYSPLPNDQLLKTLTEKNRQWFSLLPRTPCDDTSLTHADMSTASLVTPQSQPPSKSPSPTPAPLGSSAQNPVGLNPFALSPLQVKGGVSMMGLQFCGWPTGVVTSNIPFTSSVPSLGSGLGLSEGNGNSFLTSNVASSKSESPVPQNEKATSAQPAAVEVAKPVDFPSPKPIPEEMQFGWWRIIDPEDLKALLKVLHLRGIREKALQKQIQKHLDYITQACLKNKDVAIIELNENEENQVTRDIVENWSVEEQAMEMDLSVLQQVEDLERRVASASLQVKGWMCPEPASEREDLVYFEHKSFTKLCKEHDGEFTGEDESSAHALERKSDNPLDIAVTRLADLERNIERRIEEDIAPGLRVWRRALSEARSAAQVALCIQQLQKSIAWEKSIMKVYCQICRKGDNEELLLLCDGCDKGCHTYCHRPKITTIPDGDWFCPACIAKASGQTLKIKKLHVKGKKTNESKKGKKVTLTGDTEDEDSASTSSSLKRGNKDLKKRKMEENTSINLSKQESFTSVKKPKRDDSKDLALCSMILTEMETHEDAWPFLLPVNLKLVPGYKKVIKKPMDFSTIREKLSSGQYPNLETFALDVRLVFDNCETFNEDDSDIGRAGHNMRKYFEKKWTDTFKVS

For `COc1ccn2c(C(C)=O)cc(C(=O)Nc3cc(C(C)O)cc(-c4cnn(C5CC5)c4)c3F)c2c1` (stereo not drawn), the pIC50 [1] was 8.38, the pKd [2] was 7.24 and the AUC [3] was 3715.71 ng·h/mL. It also gave a Cmax [4] of 1570 ng/mL, a Cmax [5] of 8110 ng/mL and a CL [6] of 2.33 mL/min/kg. It also gave a half-life [7] of 99.6 min, a half-life [8] of 36.6 min and a remaining at 0.75 h, 1 µM [9] of 23.1%. The half-life at 1 µM [10] was 21.3 min, the hepatic extraction ratio at 0.75 h, 1 µM [11] was 0.798 and the Papp A→B at 2 h, 10 µM [12] was 6.68 ×10⁻⁶ cm/s. The efflux ratio at 2 h, 10 µM [13] was 1.77, the recovery at 2 h, 10 µM [14] was 41.2% and the recovery at 2 h, 10 µM [15] was 37.3%. For the same compound, the pIC50 [16] was 6.23, the inhibition [17] was “Active” and the inhibition [18] was “Active”. The inhibition in vivo at 40 mg/kg [19] was 88%, the solubility at 24 h [20] was 20 µg/mL (≈ 42 µM) and the Activity [21] was 13.08%. The Activity [22] was “Active”, the Activity [23] was “Active” and the Activity [24] was “Active”. For the same compound, the Activity [25] was “Active”, the ΔTm [26] was 12 °C and the ΔTm [27] was 0 °C. It also gave a ΔTm [28] of -0.5 °C, a ΔTm [29] of -2.5 °C and a ΔTm [30] of -0.8 °C. For the same compound, the ΔTm [31] was -3.3 °C, the ΔTm [32] was -3 °C and the ΔTm [33] was 5 °C.
